Reference: patent US20220257532A1 (priority 2017, published 2022)

biological target: BACE1 (β-secretase, recombinant human enzyme) (Homo sapiens, UniProt P56817); experiment: biochemical; type: biochemical; conditions: not given
Description: A BACE1 fluorescence resonance energy transfer (FRET) assay kit (β-secretase, recombinant human enzyme) was purchased from Pan Vera Co. (Madison, Wis., USA).
BACE1 is an enzyme promotive of the production of β-amyloid, which destroys neurons. In order to examine the effects on the compounds of Table 1 on the activity of BACE1, IC(inhibition concentrations)50 values were determined by measuring BACE1 activity in vitro according to Experimental Methods.

Sequence of BACE1 (β-secretase, recombinant human enzyme) (P56817 46-501): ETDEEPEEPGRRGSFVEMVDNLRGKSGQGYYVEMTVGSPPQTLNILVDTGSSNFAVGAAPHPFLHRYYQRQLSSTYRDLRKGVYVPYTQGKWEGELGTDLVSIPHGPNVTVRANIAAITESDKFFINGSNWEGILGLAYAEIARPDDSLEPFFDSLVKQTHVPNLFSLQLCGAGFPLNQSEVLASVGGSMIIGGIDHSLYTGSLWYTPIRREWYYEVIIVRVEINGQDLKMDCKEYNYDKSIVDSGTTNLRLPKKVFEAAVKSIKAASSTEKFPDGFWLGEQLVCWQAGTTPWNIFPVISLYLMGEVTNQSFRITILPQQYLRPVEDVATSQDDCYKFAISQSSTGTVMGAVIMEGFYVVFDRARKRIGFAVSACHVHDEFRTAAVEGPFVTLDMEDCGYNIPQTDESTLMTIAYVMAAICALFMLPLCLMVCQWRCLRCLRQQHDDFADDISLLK

| SMILES | IC50 |
| --- | --- |
| CC(=O)C1(/C(C)=C\C2=CC(=O)C(C)C2)CC1 (stereo not drawn) [Compound 2, 3-[2-(1-Acetylcyclopropyl)-1-propenyl)-5-methyl-2-cyclopenten-1-one] | 19.4 ± 1.7 µM |
| Cc1cc2c(c(C)c1CCO)C(=O)[C@](C)(CO)C2 [Compound 3, (2S)-pterosin A] | 64.9 ± 5.1 µM |
| Cc1cc2c(c(C)c1CCO)C(=O)[C@H](C)C2 [Compound 4, (2R)-pterosin B] | 18 ± 2 µM |
| Cc1cc2c(c(C)c1CCO)C(=O)[C@H](C)[C@H]2O [Compound 7, (2R,3R)-pterosin C] | 15.9 ± 3.5 µM |
| Cc1cc2c(c(C)c1CCO)C(=O)[C@@H](C)[C@H]2O [Compound 8, (2S,3R)-pterosin C] | 14.1 ± 1.6 µM |
| Cc1cc2c(c(C)c1CCO)C(=O)C(C)(C)[C@@H]2O [Compound 9, (3R)-Pterosin D] | 56.3 ± 3.9 µM |
| Cc1c(CCO)c(CO)cc2c1C(=O)[C@@H](C)C2 [Compound 10, (2S)-pterosin P] | 40.8 ± 4.1 µM |
| Cc1cc2c(c(C)c1CCO)C(=O)C(C)(C)C2 [Compound 11, pterosin Z] | 48.7 ± 3.2 µM |
| Cc1cc2c(c(C)c1CCO)C(=O)[C@](C)(COC1O[C@H](CO)[C@@H](O)[C@H](O)[C@H]1O)C2 (stereo partly drawn) [Compound 13, (2S)-pteroside A2] | 94.4 ± 4.5 µM |

same assay, conditions: Dixon plot and Lineweaver plot

| SMILES | Inhibition type BACE1 |
| --- | --- |
| CC(=O)C1(/C(C)=C\C2=CC(=O)C(C)C2)CC1 (stereo not drawn) [Compound 2, 3-[2-(1-Acetylcyclopropyl)-1-propenyl)-5-methyl-2-cyclopenten-1-one] | mixed type |
| Cc1cc2c(c(C)c1CCO)C(=O)[C@H](C)C2 [Compound 4, (2R)-pterosin B] | noncompetitive |
| Cc1cc2c(c(C)c1CCO)C(=O)[C@H](C)[C@H]2O [Compound 7, (2R,3R)-pterosin C] | mixed |
| Cc1cc2c(c(C)c1CCO)C(=O)[C@@H](C)[C@H]2O [Compound 8, (2S,3R)-pterosin C] | noncompetitive |

same assay, conditions: positive control quercetin

| SMILES | BACE1 IC50 compared with quercetin, in words |
| --- | --- |
| CC(=O)C1(/C(C)=C\C2=CC(=O)C(C)C2)CC1 (stereo not drawn) [Compound 2, 3-[2-(1-Acetylcyclopropyl)-1-propenyl)-5-methyl-2-cyclopenten-1-one] | lower than or similar to that of quercetin |
| Cc1cc2c(c(C)c1CCO)C(=O)[C@H](C)[C@H]2O [Compound 7, (2R,3R)-pterosin C] | lower than or similar to that of quercetin |
| Cc1cc2c(c(C)c1CCO)C(=O)[C@@H](C)[C@H]2O [Compound 8, (2S,3R)-pterosin C] | lower than or similar to that of quercetin |

biological target: T1, butyrylcholinesterase (BChE, EC3.1.1.8) (Equus caballus, UniProt P81908); experiment: In vitro cholinesterase activity assay (Ellman) and enzyme kinetics, BChE; type: biochemical; conditions: not given
T1 construct: horse serum butyrylcholinesterase (BChE, EC3.1.1.8); purchased Sigma-Aldrich Co. (St. Louis, Mo., USA); host or cells: horse serum
T1 sequence (P81908 whole entry): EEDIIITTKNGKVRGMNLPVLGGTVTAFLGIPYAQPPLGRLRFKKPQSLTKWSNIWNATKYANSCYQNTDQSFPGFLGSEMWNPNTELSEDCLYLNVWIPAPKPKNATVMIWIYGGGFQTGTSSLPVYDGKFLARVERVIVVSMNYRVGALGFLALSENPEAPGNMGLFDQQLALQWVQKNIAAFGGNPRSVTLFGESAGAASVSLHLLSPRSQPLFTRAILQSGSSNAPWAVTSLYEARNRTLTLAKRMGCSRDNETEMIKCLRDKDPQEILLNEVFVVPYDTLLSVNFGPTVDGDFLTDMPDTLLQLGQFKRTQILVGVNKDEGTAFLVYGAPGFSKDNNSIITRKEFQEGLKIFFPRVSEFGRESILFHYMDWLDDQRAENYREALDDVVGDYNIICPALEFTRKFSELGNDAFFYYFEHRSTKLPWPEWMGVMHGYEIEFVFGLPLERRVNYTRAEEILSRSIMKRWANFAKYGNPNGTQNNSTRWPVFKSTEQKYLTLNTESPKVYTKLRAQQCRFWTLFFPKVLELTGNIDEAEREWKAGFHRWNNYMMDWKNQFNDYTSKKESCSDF
Description: (§1) The reaction started with the addition of 10 μL of DTNB and 10 μL of Ach or Bch.
(§2) Briefly, the basis for this assay is the hydrolysis of acetylthiocholine by acetylcholinesterase, producing thiocholine that reacts with DTNB. […] Degrees of inhibition were calculated according to […] wherein E and S represent enzyme activities in the presence and absence of a test sample, respectively.
(§3) The compounds of Table 1 were evaluated for anti-Alzheimer activity. In this regard, inhibitory activity against AChE (acetylcholinesterase) and BChE (butyrylcholinesterase), which lyse acetylcholine in the central nervous system, was measured according to the Experimental Method to calculate IC(inhibition concentrations)50 values.

| SMILES | IC50 |
| --- | --- |
| CC(=O)C1(/C(C)=C\C2=CC(=O)C(C)C2)CC1 (stereo not drawn) [Compound 2, 3-[2-(1-Acetylcyclopropyl)-1-propenyl)-5-methyl-2-cyclopenten-1-one] | 72.9 ± 0.73 µM |
| Cc1cc2c(c(C)c1CCO)C(=O)C(C)(C)[C@@H]2O [Compound 9, (3R)-Pterosin D] | > 12 µM |
| Cc1cc2c(c(C)c1CCO)C(=O)[C@](C)(COC1O[C@H](CO)[C@@H](O)[C@H](O)[C@H]1O)C2 (stereo partly drawn) [Compound 13, (2S)-pteroside A2] | 119 ± 2.5 µM |

same assay, conditions: Dixon plot and Lineweaver plot

| SMILES | Inhibition type Butyrylcholinesterase |
| --- | --- |
| Cc1cc2c(c(C)c1CCO)C(=O)[C@H](C)C2 [Compound 4, (2R)-pterosin B] | noncompetitive |
| Cc1cc2c(c(C)c1CCO)C(=O)[C@H](C)[C@H]2O [Compound 7, (2R,3R)-pterosin C] | mixed |
| Cc1cc2c(c(C)c1CCO)C(=O)[C@@H](C)[C@H]2O [Compound 8, (2S,3R)-pterosin C] | noncompetitive |

same assay, conditions: among the compounds tested

| SMILES | BChE inhibition / IC50 rank, in words |
| --- | --- |
| Cc1cc2c(c(C)c1CCO)C(=O)C(C)(C)[C@@H]2O [Compound 9, (3R)-Pterosin D] | highest |

same assay, conditions: concentrations up to 125 μM; read-out: IC50 Butyrylcholine esterase Mean ± SEM

| SMILES | IC50 |
| --- | --- |
| Cc1cc2c(c(C)c1CCO)C(=O)[C@](C)(CO)C2 [Compound 3, (2S)-pterosin A] | 57.3 ± 3.3 µM |

same assay, conditions: ratio of IC50 BChE/AChE

| SMILES | SI selectivity index (BChE/AChE) |
| --- | --- |
| CC(=O)C1(/C(C)=C\C2=CC(=O)C(C)C2)CC1 (stereo not drawn) [Compound 2, 3-[2-(1-Acetylcyclopropyl)-1-propenyl)-5-methyl-2-cyclopenten-1-one] | 0.83 |
| Cc1cc2c(c(C)c1CCO)C(=O)[C@](C)(CO)C2 [Compound 3, (2S)-pterosin A] | 12 |
| Cc1cc2c(c(C)c1CCO)C(=O)[C@H](C)C2 [Compound 4, (2R)-pterosin B] | 3.0 |
| Cc1cc2c(c(C)c1CCO)C(=O)[C@H](C)[C@H]2O [Compound 7, (2R,3R)-pterosin C] | 0.88 |
| Cc1cc2c(c(C)c1CCO)C(=O)[C@@H](C)[C@H]2O [Compound 8, (2S,3R)-pterosin C] | 3.5 |
| Cc1c(CCO)c(CO)cc2c1C(=O)[C@@H](C)C2 [Compound 10, (2S)-pterosin P] | 3.1 |
| Cc1cc2c(c(C)c1CCO)C(=O)C(C)(C)C2 [Compound 11, pterosin Z] | 1.7 |
| Cc1cc2c(c(C)c1CCO)C(=O)[C@](C)(COC1O[C@H](CO)[C@@H](O)[C@H](O)[C@H]1O)C2 (stereo partly drawn) [Compound 13, (2S)-pteroside A2] | 3.0 |

test system: B16F10 (mouse melanoma cell-line); experiment: MTT cytotoxicity assay, cancerous cell line; type: cell-based; conditions: MTT, incubated for 48 hours with compound
Description: (§4) Mouse fibroblast cell line NIH3T3 and mouse melanoma cell line B16F10 were separately seeded at a density of 1×10^3 cells/well into 96-well plates and grown in DMEM supplemented with 10% FBS (fetal bovine serum) at 37° C. in a 5% CO2 atmosphere. The cells in each cell were incubated for 24 hours with predetermined concentrations of each of the compounds (pterosin A, pterosin B, pterosin C, pterosin D, pterosin P, pterosin Z, pteroside A, pteroside A2, pteroside B, pteroside C isomers, pteroside D, pteroside N, pteroside P, and pteroside Z) and then for 2 hours with 100 μL of MTT (0.5 mg/ml PBS). After aspiration of the medium from each well, incubation was conducted for 10 min with 100 μL of DMSO. Absorbance at 570 nm was read using a microplate reader (SPCTRA MAX 340PC, Molecular Devices, USA). Absorbance is an index accounting for a number of viable cells and was used to calculate cell proliferation rates according to the following formula. All experiments were conducted three times for reproducibility.
(§5) Cell proliferation rate (%)=OD550 (sample)/OD550 (control)
(§6) The normal cell line NIH3T3 (mouse embryo fibroblast cell-line) and the cancerous cell line B16F10 (mouse melanoma cell-line) were separately grown in 96-well plates and incubated for 48 hours with predetermined concentrations of each of the compounds. After additional incubation with MTT, absorbance at 550 nm was read using a microplate reader. Absorbance is an index accounting for a number of viable cells and was used to calculate cell proliferation rates according to the following formula. All experiments were conducted three times for reproducibility.
(§7) Cell proliferation rate (%)=OD550(sample)/OD550(control)
(§8) Then, LD50 (Lethal Dose 50) values were calculated on the basis of changes in the cell proliferation rate.

| SMILES | LD50 Cancer cell 816F10 |
| --- | --- |
| CC(=O)C1(/C(C)=C\C2=CC(=O)C(C)C2)CC1 (stereo not drawn) [Compound 2, 3-[2-(1-Acetylcyclopropyl)-1-propenyl)-5-methyl-2-cyclopenten-1-one] | 688 µM |
| Cc1cc2c(c(C)c1CCO)C(=O)[C@](C)(CO)C2 [Compound 3, (2S)-pterosin A] | 522 ± 25 µM |
| Cc1cc2c(c(C)c1CCO)C(=O)C(C)(C)C2 [Compound 11, pterosin Z] | 618 ± 71 µM |

same assay, conditions: conclusion from LD50, MTT

| SMILES | toxicity to cancerous cells, in words |
| --- | --- |
| CC(=O)C1(/C(C)=C\C2=CC(=O)C(C)C2)CC1 (stereo not drawn) [Compound 2, 3-[2-(1-Acetylcyclopropyl)-1-propenyl)-5-methyl-2-cyclopenten-1-one] | slightly toxic |
| Cc1cc2c(c(C)c1CCO)C(=O)[C@](C)(CO)C2 [Compound 3, (2S)-pterosin A] | slight cytotoxicity |
| Cc1cc2c(c(C)c1CCO)C(=O)C(C)(C)C2 [Compound 11, pterosin Z] | slightly toxic |

test system: NIH3T3 (mouse embryo fibroblast cell-line); experiment: MTT cytotoxicity assay, normal cell line; type: cell-based; conditions: conclusion from LD50, MTT
Description: as §4, §5, §6, §7, §8

| SMILES | toxicity to normal cells, in words |
| --- | --- |
| CC(=O)C1(/C(C)=C\C2=CC(=O)C(C)C2)CC1 (stereo not drawn) [Compound 2, 3-[2-(1-Acetylcyclopropyl)-1-propenyl)-5-methyl-2-cyclopenten-1-one] | almost non-toxic |
| Cc1cc2c(c(C)c1CCO)C(=O)C(C)(C)C2 [Compound 11, pterosin Z] | slightly toxic |

same assay, conditions: conclusion from LD50, MTT; listed as compound of Chemical Formula 2

| SMILES | toxicity to normal cells, in words |
| --- | --- |
| CC(=O)C1(/C(C)=C\C2=CC(=O)C(C)C2)CC1 (stereo not drawn) [Compound 2, 3-[2-(1-Acetylcyclopropyl)-1-propenyl)-5-methyl-2-cyclopenten-1-one] | non-toxic |

biological target: T2, acetylcholinesterase (AChE, EC3.1.1.7) (Electrophorus electricus, UniProt O42275); experiment: In vitro cholinesterase activity assay (Ellman) and enzyme kinetics, AChE; type: biochemical; conditions: not given
T2 construct: purchased Sigma-Aldrich Co. (St. Louis, Mo., USA)
T2 sequence (O42275 24-633): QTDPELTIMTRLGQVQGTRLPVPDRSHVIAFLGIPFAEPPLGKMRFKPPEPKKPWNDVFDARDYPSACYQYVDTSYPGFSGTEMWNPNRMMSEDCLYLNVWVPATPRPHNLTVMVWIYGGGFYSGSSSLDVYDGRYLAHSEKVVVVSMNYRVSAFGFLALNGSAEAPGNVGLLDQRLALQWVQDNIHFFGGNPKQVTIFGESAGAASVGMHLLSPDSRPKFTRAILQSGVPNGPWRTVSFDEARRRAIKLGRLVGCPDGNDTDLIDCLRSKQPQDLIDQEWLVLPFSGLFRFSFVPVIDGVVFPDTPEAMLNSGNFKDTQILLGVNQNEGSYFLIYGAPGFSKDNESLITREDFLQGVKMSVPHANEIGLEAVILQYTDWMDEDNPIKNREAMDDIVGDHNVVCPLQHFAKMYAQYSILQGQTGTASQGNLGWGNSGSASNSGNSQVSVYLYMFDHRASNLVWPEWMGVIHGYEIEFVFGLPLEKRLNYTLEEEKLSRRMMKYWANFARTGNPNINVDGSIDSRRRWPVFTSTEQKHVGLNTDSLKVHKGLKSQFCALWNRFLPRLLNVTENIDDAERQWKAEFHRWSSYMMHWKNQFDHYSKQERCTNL
Description: as §1, §2, §3

| SMILES | IC50 |
| --- | --- |
| CC(=O)C1(/C(C)=C\C2=CC(=O)C(C)C2)CC1 (stereo not drawn) [Compound 2, 3-[2-(1-Acetylcyclopropyl)-1-propenyl)-5-methyl-2-cyclopenten-1-one] | 87.7 ± 1.6 µM |

same assay, conditions: Dixon plot and Lineweaver plot

| SMILES | Inhibition type Acetylcholinesterase |
| --- | --- |
| Cc1cc2c(c(C)c1CCO)C(=O)[C@H](C)C2 [Compound 4, (2R)-pterosin B] | mixed |
| Cc1cc2c(c(C)c1CCO)C(=O)[C@H](C)[C@H]2O [Compound 7, (2R,3R)-pterosin C] | noncompetitive |
| Cc1cc2c(c(C)c1CCO)C(=O)[C@@H](C)[C@H]2O [Compound 8, (2S,3R)-pterosin C] | mixed |

same assay, conditions: among the compounds tested

| SMILES | AChE inhibition / IC50 rank, in words |
| --- | --- |
| CC(=O)C1(/C(C)=C\C2=CC(=O)C(C)C2)CC1 (stereo not drawn) [Compound 2, 3-[2-(1-Acetylcyclopropyl)-1-propenyl)-5-methyl-2-cyclopenten-1-one] | highest |
| Cc1cc2c(c(C)c1CCO)C(=O)[C@H](C)C2 [Compound 4, (2R)-pterosin B] | excellent |

same assay, conditions: concentrations up to 125 μM; read-out: IC50 Acetylcholine esterase Mean ± SEM

| SMILES | IC50 |
| --- | --- |
| Cc1cc2c(c(C)c1CCO)C(=O)[C@](C)(CO)C2 [Compound 3, (2S)-pterosin A] | 88.7 ± 2.6 µM |
